Data reported in ChEMBL document CHEMBL3885861, “Open TG-GATES”.

Organism: Rattus norvegicus
Assay: Open TG-GATES - Regimen: Single
Assay type: toxicity, organism-based, Sprague-Dawley
Set-up: regimen Single, gender Male, age 6 weeks
Conditions: in vivo, po, 60 mg/kg, route gavage, dose level Middle; for APTT / Bas / Eos / Fbg / Hb / Ht / Lym / MCH / MCHC / MCV / Mono / Neu / PT / Plat / RBC / Ret / WBC: tissue Blood; for KIDNEY_L / KIDNEY_R / KIDNEY_TOTAL: tissue Kidney; for LIVER: tissue Liver; for A/G / ALP / ALT / AST / BUN / CRE / Ca / Cl / DBIL / GLC / IP / K / LDH / Na / PL / RALB / TBIL / TC / TG / TP / gamma-GTP: tissue Plasma

## CCc1oc2ccccc2c1C(=O)c1cc(Br)c(O)c(Br)c1 [BENZBROMARONE]
3 h
  TERMINAL_BW: 215.1 g
  APTT: 17.4 s
  Bas: 0%
  Eos: 1%
  Fbg: 233.2 mg/dL
  Hb: 13.8 g/dL
  Ht: 41.1%
  Lym: 83%
  MCH: 21.9 pg
  MCHC: 33.7%
  MCV: 64.9 fL
  Mono: 6.6%
  Neu: 9.4%
  PT: 11.8 s
  Plat: 99.4 x10_4/uL
  RBC: 633 x10_4/ul
  Ret: 7.5%
  WBC: 133 x10_2/uL
  KIDNEY_L: 1 g
  KIDNEY_R: 1 g
  KIDNEY_TOTAL: 1.9 g
  LIVER: 10.6 g
  A/G: 2.1
  ALP: 892.8 IU/L
  ALT: 30.6 IU/L
  AST: 62.4 IU/L
  BUN: 12.8 mg/dL
  CRE: 0.6 mg/dL
  Ca: 11 mg/dL
  Cl: 103.8 meq/L
  DBIL: 0.064 mg/dL
  GLC: 202.8 mg/dL
  IP: 9.8 mg/dL
  K: 4.8 meq/L
  LDH: 87.4 IU/L
  Na: 139.6 meq/L
  PL: 147.6 mg/dL
  RALB: 3.8 g/dL
  TBIL: 0.3 mg/dL
  TC: 82.6 mg/dL
  TG: 72.8 mg/dL
  TP: 5.7 g/dL
  gamma-GTP: 1 IU/L
6 h
  TERMINAL_BW: 212 g
  APTT: 16.1 s
  Bas: 0%
  Eos: 1%
  Fbg: 230.6 mg/dL
  Hb: 13.5 g/dL
  Ht: 40.2%
  Lym: 75.6%
  MCH: 21.7 pg
  MCHC: 33.6%
  MCV: 64.5 fL
  Mono: 6.4%
  Neu: 17.2%
  PT: 12.2 s
  Plat: 103.4 x10_4/uL
  RBC: 624.2 x10_4/ul
  Ret: 7.8%
  WBC: 86 x10_2/uL
  KIDNEY_L: 1 g
  KIDNEY_R: 1 g
  KIDNEY_TOTAL: 2 g
  LIVER: 9.8 g
  A/G: 2.2
  ALP: 764.8 IU/L
  ALT: 28.8 IU/L
  AST: 58.8 IU/L
  BUN: 9.2 mg/dL
  CRE: 0.5 mg/dL
  Ca: 10.3 mg/dL
  Cl: 103.6 meq/L
  DBIL: 0.016 mg/dL
  GLC: 195 mg/dL
  IP: 10.1 mg/dL
  K: 4.8 meq/L
  LDH: 88.8 IU/L
  Na: 138.6 meq/L
  PL: 131.4 mg/dL
  RALB: 3.8 g/dL
  TBIL: 0.4 mg/dL
  TC: 74.2 mg/dL
  TG: 79.6 mg/dL
  TP: 5.6 g/dL
  gamma-GTP: 1 IU/L
9 h
  TERMINAL_BW: 210.8 g
  APTT: 16.3 s
  Bas: 0%
  Eos: 1%
  Fbg: 233 mg/dL
  Hb: 13.6 g/dL
  Ht: 40.8%
  Lym: 77.6%
  MCH: 21.9 pg
  MCHC: 33.4%
  MCV: 65.6 fL
  Mono: 5.4%
  Neu: 16.6%
  PT: 12.2 s
  Plat: 109.2 x10_4/uL
  RBC: 622.6 x10_4/ul
  Ret: 7.4%
  WBC: 90.4 x10_2/uL
  KIDNEY_L: 0.9 g
  KIDNEY_R: 1 g
  KIDNEY_TOTAL: 1.9 g
  LIVER: 9.1 g
  A/G: 2.1
  ALP: 731.6 IU/L
  ALT: 29 IU/L
  AST: 59.8 IU/L
  BUN: 10.4 mg/dL
  CRE: 0.6 mg/dL
  Ca: 10.1 mg/dL
  Cl: 104.4 meq/L
  DBIL: 0.004 mg/dL
  GLC: 187.8 mg/dL
  IP: 11.1 mg/dL
  K: 4.9 meq/L
  LDH: 85 IU/L
  Na: 138 meq/L
  PL: 112.4 mg/dL
  RALB: 3.9 g/dL
  TBIL: 0.3 mg/dL
  TC: 67.4 mg/dL
  TG: 37.6 mg/dL
  TP: 5.7 g/dL
  gamma-GTP: 1.2 IU/L
24 h
  TERMINAL_BW: 222.2 g
  APTT: 16.1 s
  Bas: 0%
  Eos: 1.2%
  Fbg: 223.2 mg/dL
  Hb: 13.8 g/dL
  Ht: 41.1%
  Lym: 77.2%
  MCH: 22.4 pg
  MCHC: 33.7%
  MCV: 66.5 fL
  Mono: 9%
  Neu: 12.6%
  PT: 12.3 s
  Plat: 105.9 x10_4/uL
  RBC: 617.8 x10_4/ul
  Ret: 7.5%
  WBC: 80 x10_2/uL
  KIDNEY_L: 1 g
  KIDNEY_R: 1 g
  KIDNEY_TOTAL: 2.1 g
  LIVER: 11.9 g
  A/G: 2.2
  ALP: 861.2 IU/L
  ALT: 31.6 IU/L
  AST: 63.4 IU/L
  BUN: 18.6 mg/dL
  CRE: 0.6 mg/dL
  Ca: 10.3 mg/dL
  Cl: 104.8 meq/L
  DBIL: 0.016 mg/dL
  GLC: 183.2 mg/dL
  IP: 7.9 mg/dL
  K: 5 meq/L
  LDH: 111.2 IU/L
  Na: 138.2 meq/L
  PL: 130.6 mg/dL
  RALB: 4.1 g/dL
  TBIL: 0.4 mg/dL
  TC: 68.2 mg/dL
  TG: 111 mg/dL
  TP: 5.9 g/dL
  gamma-GTP: 1.4 IU/L
